Results reported in patent publication US20240228481A1, “NOVEL SULFONAMIDE SERIES OF QR2 INHIBITORS TO TACKLE OXIDATIVE STRESS AND COGNITIVE DECLINE” (CARMEL HAIFA UNIVERSITY ECONOMIC CORPORATION LTD., priority 2021, published 2024).
Structures can show the parent of a compound that is named as a salt.

Tests used:
[1] = in vitro; details: human
Procedure: THLE-2 (CRL-2706™) were grown in the BEGM Bullet Kit (CC-3170) from Lonza. Besides the additives contained in the kit, the medium was further supplemented with 5 ng/mL EGF (Sigma), 70 ng/mL phosphoethanolamine (Sigma) and 10% FBS (Biological Industries). The plates for the THLE-2 needed to be pre-coated with a mixture of 0.01 mg/mL fibronectin, 0.05 mg/mL of PureCol™ EZ Gel Solution (Sigma) and 0.01 mg/mL of BSA dissolved in BEBM medium (Lonza). The coating medium was aspirated before seeding.
THLE-2 cells were exposed to the compounds in a 9-point, 2-fold dilution dose response series with a 100 μM as upper limit, for 72 h. Following the 72 h of exposure to the test compounds, cell viability was determined by measuring the concentration of cellular ATP (CellTiter Glo, Promega). The luminescence signal was measured on a Pherastar FS multi-mode plate reader (BMG Labtech). Each data point was tested in a triplicate.
First, toxicity was assessed in an ATP depletion assay, using THLE-2 cells following a 72 h exposure to a dose response of each of the tested compounds.

[2] = target: T1, QR2 (Homo sapiens, UniProt P16083); test: Cellular thermal shift assay (CETSA) of QR2 in HEK293T cells; assay type: cell-based; parameters: endogenous in cells; host or cells: HEK293T
T1 sequence (P16083 1-231): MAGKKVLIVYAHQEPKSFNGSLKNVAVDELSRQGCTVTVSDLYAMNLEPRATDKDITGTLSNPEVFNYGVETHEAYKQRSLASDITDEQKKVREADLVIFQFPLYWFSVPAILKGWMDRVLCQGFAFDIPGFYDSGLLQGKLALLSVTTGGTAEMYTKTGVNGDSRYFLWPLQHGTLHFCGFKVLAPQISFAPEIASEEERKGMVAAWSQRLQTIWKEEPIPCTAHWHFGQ
Procedure: The CETSA assay was performed as described (Miettinen and Björklund, 2014) with some modifications. Briefly, HEK293T cells were trypsinized (Biological Industries), washed in PBS (Sigma-Aldrich), and then suspended in PBS containing protease inhibitor cocktail (Roche). The suspended cells were then divided into two Eppendorf tubes and were treated with either: a compound or DMSO (Sigma-Aldrich) for 1 h at 37° C. under shaking. Following treatment, each sample was divided into PCR tubes (100 μL/tube) and subjected to a temperature gradient (ranging from 63 to 80° C.) for 3 minutes. Cell lysates were obtained by 3-cycles of freeze-thaw using liquid nitrogen and a thermal block set to 25° C. Samples were then centrifuged at 15,000 rpm at 4° C. for 20 min and were subsequently analyzed by western blot targeting QR2 (1:100, Santa Cruz; sc-271665). The isothermal dose response fingerprint (ITDRF) experiments were done using a constant temperature of 73° C. Band intensities were normalized to the highest concentration and superoxide dismutase 1 (SOD1) levels (1:200, Santa Cruz; sc-17767). Analysis of the results were performed according to Jafari et al., (2014) using GraphPad Prism software.
To establish direct target engagement, as well as cell membrane permeability, a cellular thermal shift assay (CETSA) was carried out (see methods), using the leading compounds YB-537, YB-800, and YB-808. Following 1 h preincubation with 5 μM of each of the compounds, or vehicle, thermal aggregation curves (Tagg) of QR2 expressed in HEK293T were measured in increasing temperatures. […] Based on the Tagg curves, the inventors selected 73° C. for isothermal dose-response fingerprint (IDTRF) experiments (FIG. 2B).

Compound | IC50 at 72 h [1] | thermal stability of QR2 (thermal aggregation curve) versus vehicle ([2]; 5 μM, 1 h preincubation) | EC50 ([2]; CETSA at 73° C., read-out: EC50 of QR2 stabilization (isothermal dose-response fingerprint))
Cc1ccc(-c2cn3cccc(C)c3n2)cc1S(=O)(=O)N1CCNCC1 [YB-537, 8-methyl-2-(4-methyl-3-(piperazin-1-ylsulfonyl)phenyl)imidazo[1,2-a]pyridine hydrochloride] | > 99000 nM | – | –
Cc1cccn2cc(-c3cccc(S(=O)(=O)N4CCC(C)CC4)c3)nc12 [YB-800] | – | shifts of thermal stability | 34 nM
